Data published in patent US6737383B1, “Herbicidal oxadiazolidines” (priority 1999, dated 2004).

Experiments:
rice = experiment: Test B flood test rice; format: in vivo, Oryza sativa
In short: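 Plants were grown to the 2-leaf stage before treatment with test chemical, then held in a greenhouse for twelve to sixteen days. Injury was visually rated against untreated controls on a 0–10 scale, where 0 is no effect and 10 is complete control.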

smallflower flatsedge = experiment: Test B flood test smallflower flatsedge; format: in vivo, Cyperus difformis
Experimental: (§1) At the same time, these crop and weed species were also treated with postemergence applications of test chemicals formulated in the same manner. Plants ranged in height from 2 to 18 cm (1- to 4-leaf stage) for postemergence treatments. Plant species in the flood test consisted of rice (Oryza sativa), smallflower flatsedge (Cyperus difformis), duck salad (Heteranthera limosa) and bamyardgrass (Echinochloa crus-galli) grown to the 2-leaf stage for testing. Treated plants and controls were maintained in a greenhouse for twelve to sixteen days, after which all species were compared to controls and visually evaluated. Plant response ratings, summarized in Table B, are based on a scale of 0 to 10 where 0 is no effect and 10 is complete control. A dash (−) response means no test result.

duck salad = experiment: Test B flood test duck salad; format: in vivo, Heteranthera limosa
Experimental: as §1

bamyardgrass = experiment: Test B flood test barnyardgrass; format: in vivo, Echinochloa crus-galli
Experimental: as §1

bedstraw = experiment: Test B pre/postemergence bedstraw; format: in vivo, Galium aparine; details: Preemergence
In short: (§2)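 Response is a visual 0-to-10 score relative to untreated plants, where 0 means no effect and 10 means complete control, taken twelve to sixteen days after application. Treatments went onto soil at planting and onto foliage of 1- to 4-leaf plants, using a surfactant-containing non-phytotoxic solvent.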

blackgrass = experiment: Test B pre/postemergence blackgrass; format: in vivo, Alopecurus myosuroides
In short: as §2

surinam grass = experiment: Test B pre/postemergence surinam grass; format: in vivo, Brachiaria decumbens
In short: as §2

cocklebur = experiment: Test B pre/postemergence cocklebur; format: in vivo, Xanthium strumarium
In short: as §2

corn = experiment: Test B pre/postemergence corn; format: in vivo, Zea mays
In short: as §2

crabgrass = experiment: Test B pre/postemergence crabgrass; format: in vivo, Digitaria sanguinalis
In short: as §2

giant foxtail = experiment: Test B pre/postemergence giant foxtail; format: in vivo, Setaria faberii
In short: as §2

morningglory = experiment: Test B pre/postemergence morningglory; format: in vivo, Ipomoea hederacea
In short: as §2

pigweed = experiment: Test B pre/postemergence pigweed; format: in vivo, Amaranthus retroflexus
In short: as §2

rape = experiment: Test B pre/postemergence rape; format: in vivo, Brassica napus
In short: as §2

soybean = experiment: Test B pre/postemergence soybean; format: in vivo, Glycine max
In short: as §2

sugar beet = experiment: Test B pre/postemergence sugar beet; format: in vivo, Beta vulgaris
In short: as §2

velvetleaf = experiment: Test B pre/postemergence velvetleaf; format: in vivo, Abutilon theophrasti
In short: as §2

wheat = experiment: Test B pre/postemergence wheat; format: in vivo, Triticum aestivum
In short: as §2

wild oat = experiment: Test B pre/postemergence wild oat; format: in vivo, Avena fatua
In short: as §2

purple nutsedge = experiment: Test B pre/postemergence purple nutsedge; format: in vivo, Cyperus rotundus
In short: as §2

[1] = Rate 62 g/ha, flood test species, Pre-emergence, visual evaluation after twelve to sixteen days
[2] = Rate 125 g/ha, under heading Pre-emergence, flood test species, visual evaluation after twelve to sixteen days
[3] = Rate 250 g/ha, Pre-emergence (flood test species), scale 0 to 10, 0 is no effect, 10 is complete control
[4] = Rate 500 g/ha, Pre-emergence section of Table B, 0 to 10 scale (0 no effect, 10 complete control)
[5] = Postemergence, Rate 62 g/ha, scale 0 to 10, 0 is no effect, 10 is complete control
[6] = Postemergence, Rate 125 g/ha, scale of 0 to 10 where 0 is no effect and 10 is complete control
[7] = Preemergence, Rate 62 g/ha, scale of 0 to 10 where 0 is no effect and 10 is complete control
[8] = Preemergence, Rate 125 g/ha, scale of 0 to 10 where 0 is no effect and 10 is complete control
[9] = Preemergence, Rate 250 g/ha, scale 0 (no effect) to 10 (complete control)
[10] = Preemergence, Rate 500 g/ha, scale of 0 to 10 where 0 is no effect and 10 is complete control
[11] = Rate 250 g/ha, Postemergence, scale 0 to 10, 0 is no effect, 10 is complete control
[12] = Rate 500 g/ha, Postemergence, scale 0 to 10, 0 is no effect, 10 is complete control

C=C(C(=O)OC)C(C)n1c(=O)on(C(=O)N(c2ccccc2)C(C)C)c1=O (stereo not drawn) [Compound 651]
Plant response rating, Rice (0 to 10 scale, 0 is no effect, 10 is complete control) (rice; [1]): 0 | Rice plant response rating (0 to 10 scale, 0 is no effect, 10 is complete control) (rice; [2]): 0 | Rice plant response rating (rice; [3]): 0 | Rice plant response rating (rice; [4]): 0 | Plant response rating, S. Flatsedge (0 to 10 scale, 0 is no effect, 10 is complete control) (smallflower flatsedge; [1]): 0 | S. Flatsedge plant response rating (0 to 10 scale, 0 is no effect, 10 is complete control) (smallflower flatsedge; [2]): 0 | S. Flatsedge plant response rating (smallflower flatsedge; [3]): 0 | S. Flatsedge plant response rating (smallflower flatsedge; [4]): 0 | Plant response rating, Ducksalad (0 to 10 scale, 0 is no effect, 10 is complete control) (duck salad; [1]): 0 | Ducksalad plant response rating (0 to 10 scale, 0 is no effect, 10 is complete control) (duck salad; [2]): 0 | Ducksalad plant response rating (duck salad; [3]): 0 | Ducksalad plant response rating (duck salad; [4]): 0 | Plant response rating, Barnyardgrass (0 to 10 scale, 0 is no effect, 10 is complete control) (bamyardgrass; [1]): 0 | Barnyardgrass plant response rating (0 to 10 scale, 0 is no effect, 10 is complete control) (bamyardgrass; [2]): 0 | Barnyardgrass plant response rating (bamyardgrass; [3]): 0 | Barnyardgrass plant response rating (bamyardgrass; [4]): 0

CC(C)N(C(=O)n1oc(=O)n(CF)c1=O)c1ccc(F)cc1 [Compound 709]
Bedstraw plant response rating (bedstraw; Rate 62 g/ha, scale of 0 to 10 where 0 is no effect and 10 is complete control): 0 | Plant response rating, Bedstraw (bedstraw; Rate 125 g/ha, scale of 0 to 10 where 0 is no effect and 10 is complete control): 0 | Bedstraw plant response rating (bedstraw; Rate 250 g/ha, scale 0 (no effect) to 10 (complete control)): 0 | Plant response rating, Bedstraw (bedstraw; Rate 500 g/ha, scale of 0 to 10 where 0 is no effect and 10 is complete control): 0 | Plant response rating, Blackgrass (blackgrass; [5]): 0 | Blackgrass plant response rating (blackgrass; [6]): 0 | Blackgrass plant response rating (blackgrass; [7]): 0 | Plant response rating, Blackgrass (blackgrass; [8]): 0 | Blackgrass plant response rating (blackgrass; [9]): 0 | Plant response rating, Blackgrass (blackgrass; [10]): 0 | Blackgrass plant response rating (blackgrass; [11]): 0 | Blackgrass plant response rating (blackgrass; [12]): 0 | Plant response rating, B. signalgrass (surinam grass; [5]): 0 | B. signalgrass plant response rating (surinam grass; [6]): 0 | B. signalgrass plant response rating (surinam grass; [7]): 0 | Plant response rating, B. signalgrass (surinam grass; [8]): 0 | B. signalgrass plant response rating (surinam grass; [9]): 0 | Plant response rating, B. signalgrass (surinam grass; [10]): 0 | B. signalgrass plant response rating (surinam grass; [11]): 0 | B. signalgrass plant response rating (surinam grass; [12]): 0 | Plant response rating, Cocklebur (cocklebur; [5]): 0 | Cocklebur plant response rating (cocklebur; [6]): 0 | Cocklebur plant response rating (cocklebur; [7]): 0 | Plant response rating, Cocklebur (cocklebur; [8]): 0 | Cocklebur plant response rating (cocklebur; [9]): 0 | Plant response rating, Cocklebur (cocklebur; [10]): 0 | Cocklebur plant response rating (cocklebur; [11]): 0 | Cocklebur plant response rating (cocklebur; [12]): 3 | Plant response rating, Corn (corn; [5]): 0 | Corn plant response rating (corn; [6]): 0 | Corn plant response rating (corn; [7]): 0 | Plant response rating, Corn (corn; [8]): 0 | Corn plant response rating (corn; [9]): 0 | Corn plant response rating (corn; [11]): 0 | Corn plant response rating (corn; [12]): 0 | Plant response rating, Crabgrass (crabgrass; [5]): 2 | Crabgrass plant response rating (crabgrass; [6]): 3 | Crabgrass plant response rating (crabgrass; [7]): 2 | Plant response rating, Crabgrass (crabgrass; [8]): 3 | Crabgrass plant response rating (crabgrass; [9]): 7 | Crabgrass plant response rating (crabgrass; [11]): 6 | Crabgrass plant response rating (crabgrass; [12]): 8 | Plant response rating, Giant foxtail (giant foxtail; [5]): 3 | Giant foxtail plant response rating (giant foxtail; [6]): 4 | Giant foxtail plant response rating (giant foxtail; [7]): 2 | Plant response rating, Giant foxtail (giant foxtail; [8]): 4 | Giant foxtail plant response rating (giant foxtail; [9]): 7 | Giant foxtail plant response rating (giant foxtail; [11]): 8 | Giant foxtail plant response rating (giant foxtail; [12]): 9 | Morningglory plant response rating (morningglory; [6]): 0 | Morningglory plant response rating (morningglory; [7]): 0 | Plant response rating, Morningglory (morningglory; [8]): 0 | Morningglory plant response rating (morningglory; [9]): 0 | Morningglory plant response rating (morningglory; [11]): 2 | Morningglory plant response rating (morningglory; [12]): 6 | Plant response rating, Redroot pigweed (pigweed; [5]): 5 | Redroot pigweed plant response rating (pigweed; [6]): 5 | Redroot pigweed plant response rating (pigweed; [7]): 0 | Plant response rating, Redroot pigweed (pigweed; [8]): 0 | Redroot pigweed plant response rating (pigweed; [9]): 5 | Redroot pigweed plant response rating (pigweed; [11]): 8 | Redroot pigweed plant response rating (pigweed; [12]): 8 | Plant response rating, Rape (rape; [5]): 0 | Rape plant response rating (rape; [6]): 0 | Rape plant response rating (rape; [7]): 0 | Plant response rating, Rape (rape; [8]): 0 | Rape plant response rating (rape; [9]): 0 | Rape plant response rating (rape; [11]): 0 | Rape plant response rating (rape; [12]): 0 | Plant response rating, Soybean (soybean; [5]): 1 | Soybean plant response rating (soybean; [6]): 3 | Soybean plant response rating (soybean; [7]): 0 | Plant response rating, Soybean (soybean; [8]): 0 | Soybean plant response rating (soybean; [9]): 0 | Soybean plant response rating (soybean; [11]): 3 | Soybean plant response rating (soybean; [12]): 4 | Plant response rating, Sugarbeets (sugar beet; [5]): 0 | Sugarbeets plant response rating (sugar beet; [6]): 0 | Sugarbeets plant response rating (sugar beet; [7]): 0 | Plant response rating, Sugarbeets (sugar beet; [8]): 0 | Sugarbeets plant response rating (sugar beet; [9]): 0 | Sugarbeets plant response rating (sugar beet; [11]): 0 | Sugarbeets plant response rating (sugar beet; [12]): 0 | Plant response rating, Velvetleaf (velvetleaf; [5]): 4 | Velvetleaf plant response rating (velvetleaf; [6]): 4 | Velvetleaf plant response rating (velvetleaf; [7]): 0 | Plant response rating, Velvetleaf (velvetleaf; [8]): 0 | Velvetleaf plant response rating (velvetleaf; [9]): 0 | Velvetleaf plant response rating (velvetleaf; [11]): 4 | Velvetleaf plant response rating (velvetleaf; [12]): 6 | Plant response rating, Wheat (wheat; [5]): 0 | Wheat plant response rating (wheat; [6]): 0 | Wheat plant response rating (wheat; [7]): 0 | Plant response rating, Wheat (wheat; [8]): 0 | Wheat plant response rating (wheat; [9]): 0 | Wheat plant response rating (wheat; [11]): 0 | Wheat plant response rating (wheat; [12]): 0 | Plant response rating, Wild oats (wild oat; [5]): 0 | Wild oats plant response rating (wild oat; [6]): 0 | Wild oats plant response rating (wild oat; [7]): 0 | Plant response rating, Wild oats (wild oat; [8]): 0 | Wild oats plant response rating (wild oat; [9]): 0 | Wild oats plant response rating (wild oat; [11]): 0 | Wild oats plant response rating (wild oat; [12]): 0 | Plant response rating, Nutsedge (purple nutsedge; [5]): 0 | Nutsedge plant response rating (purple nutsedge; [6]): 0 | Nutsedge plant response rating (purple nutsedge; [7]): 0 | Plant response rating, Nutsedge (purple nutsedge; [8]): 0 | Nutsedge plant response rating (purple nutsedge; [11]): 0 | Nutsedge plant response rating (purple nutsedge; [12]): 6
